The values that follow come from BindingDB's records for doi:10.1021/jm100555f (Harvard Medical School, 2010).

Structures are written as SMILES.

A short description of this assay: Inhibition of Bcr-Abl in mouse BA/F3 cells.
Turning to `FC(F)(F)Oc1ccc(Nc2nccc(NCCN3CCOCC3)n2)cc1` [N4-(2-morpholinoethyl)-N2-(4-(trifluoromethoxy)phenyl)pyrimidine-2,4-diamine], the EC50 is more than 10000 nM.
`FC(F)(F)c1ccc(Nc2cc(-c3ccncc3)ncn2)cc1` [6-(pyridin-4-yl)-N-(4-(trifluoromethyl)phenyl)pyrimidin-4-amine] displayed an EC50 of 1270 nM.
`CCNC(=O)c1cc2c(Nc3ccc(OC(F)(F)F)cc3)ncnc2s1` [N-ethyl-4-(4-(trifluoromethoxy)phenylamino)thieno[2,3-d]pyrimidine-6-carboxamide] had an EC50 of 918 nM.
Turning to `CCn1cc2c(Nc3ccc(OC(F)(F)F)cc3)ncnc2n1` [2-ethyl-N-(4-(trifluoromethoxy)phenyl)-2H-pyrazolo[3,4-d]pyrimidin-4-amine], the EC50 came to 1200 nM. The EC50 values of the last two compounds are within 1.5-fold of each other.
In the case of `FC(F)(F)Oc1ccc(Nc2cc(-c3cccc4[nH]ccc34)ncn2)cc1` [6-(1H-indol-4-yl)-N-(4-(trifluoromethoxy)phenyl)pyrimidin-4-amine], the EC50 was 140 nM.
The compound `FC(F)(F)Oc1ccc(Nc2cc(-n3ccnc3)ncn2)cc1` [6-(1H-imidazol-1-yl)-N-(4-(trifluoromethoxy)phenyl)pyrimidin-4-amine] displayed an EC50 of 1660 nM.
Compound `FC(F)(F)Oc1ccc(Nc2cc(NCCCN3CCOCC3)ncn2)cc1` [N4-(3-morpholinopropyl)-N6-(4-(trifluoromethoxy)phenyl)pyrimidine-4,6-diamine] gave an EC50 of 4470 nM. Compared with the last compound, the EC50 is about 2.7-fold higher.
The compound `Cc1nc(-c2cc(Nc3ccc(OC(F)(F)F)cc3)ncn2)cs1` [6-(2-methylthiazol-4-yl)-N-(4-(trifluoromethoxy)phenyl)pyrimidin-4-amine] had an EC50 of 1230 nM.
Next, `FC(F)(F)Oc1ccc(Nc2ncnc(NCCN3CCOCC3)n2)cc1` [N2-(2-morpholinoethyl)-N4-(4-(trifluoromethoxy)phenyl)-1,3,5-triazine-2,4-diamine]: more than 10000 nM; `FC(F)(F)c1ccc(Nc2cc(-c3ccncc3)ncn2)cn1` [6-(pyridin-4-yl)-N-(6-(trifluoromethyl)pyridin-3-yl)pyrimidin-4-amine]: 1240 nM.
On to `NC(=O)Cn1cc2c(Nc3ccc(OC(F)(F)F)cc3)ncnc2n1` [2-(4-(4-(trifluoromethoxy)phenylamino)-2H-pyrazolo[3,4-d]pyrimidin-2-yl)acetamide], for which the EC50 was 4340 nM.
Next, `CN(c1ccc(OC(F)(F)F)cc1)c1cc(-c2ccncc2)ncn1` [N-methyl-6-(pyridin-4-yl)-N-(4-(trifluoromethoxy)phenyl)pyrimidin-4-amine]: more than 10000 nM; `O=C(NCCO)c1cc2c(Nc3ccc(OC(F)(F)F)cc3)ncnc2s1` [N-(2-Hydroxyethyl)-4-(4-(trifluoromethoxy)phenylamino)thieno[2,3-d]pyrimidine-6-carboxamide]: more than 10000 nM.
`CS(=O)(=O)c1cccc(-c2cc(Nc3ccc(OC(F)(F)F)cc3)ncn2)c1` [6-(3-(methylsulfonyl)phenyl)-N-(4-(trifluoromethoxy)phenyl)pyrimidin-4-amine] gave an EC50 of 390 nM.
The figure for `COc1ccc(Nc2cc(-c3ccncc3)ncn2)cc1` [N-(4-methoxyphenyl)-6-(pyridin-4-yl)pyrimidin-4-amine] is more than 10000 nM.
Consider `NC(=O)c1ccc(Cn2ncc3c(Nc4ccc(OC(F)(F)F)cc4)ncnc32)cc1` [4-((4-(4-(trifluoromethoxy)phenylamino)-1H-pyrazolo[3,4-d]pyrimidin-1-yl)methyl)benzamide], for which a half-maximal effect (EC50) was put at 6890 nM.
Consider `Cc1c(-c2cc(Nc3ccc(OC(F)(F)F)cc3)ncn2)cnn1-c1ccccc1` [6-(5-methyl-1-phenyl-1H-pyrazol-4-yl)-N-(4-(trifluoromethoxy)phenyl)pyrimidin-4-amine], for which the EC50 is 810 nM.
Next, `Cc1nn(C)c(C)c1-c1cc(Nc2ccc(OC(F)(F)F)cc2)ncn1` [N-(4-(trifluoromethoxy)phenyl)-6-(1,3,5-trimethyl-1H-pyrazol-4-yl)pyrimidin-4-amine]: 150 nM; `CC(C)(C)n1ncc2c(Nc3ccc(OC(F)(F)F)cc3)ncnc21` [1-tert-butyl-N-(4-(trifluoromethoxy)phenyl)-1H-pyrazolo[3,4-d]pyrimidin-4-amine]: 160 nM; `CCn1ncc2c(Nc3ccc(OC(F)(F)F)cc3)ncnc21` [1-ethyl-N-(4-(trifluoromethoxy)phenyl)-1H-pyrazolo[3,4-d]pyrimidin-4-amine]: 300 nM.
The figure for `NC(=O)c1ccc(-c2cc(Nc3ccc(OC(F)(F)F)cc3)ncn2)cc1` [4-(6-(4-(trifluoromethoxy)phenylamino)pyrimidin-4-yl)benzamide] is 480 nM; for `FC(F)(F)Oc1cccc(Nc2cc(NCCN3CCOCC3)ncn2)c1` [N4-(2-morpholinoethyl)-N6-(3-(trifluoromethoxy)phenyl)pyrimidine-4,6-diamine] it is more than 10000 nM; for `NS(=O)(=O)c1ccc(-c2cc(Nc3ccc(OC(F)(F)F)cc3)ncn2)cc1` [4-(6-(4-(trifluoromethoxy)phenylamino)pyrimidin-4-yl)benzenesulfonamide] it is 120 nM.
Next, `CN1CCN(C(=O)c2cc3c(Nc4ccc(OC(F)(F)F)cc4)ncnc3s2)CC1` [(4-methylpiperazin-1-yl)(4-(4-(trifluoromethoxy)phenylamino)thieno[2,3-d]pyrimidin-6-yl)methanone]: 48 nM; `NC(=O)Cn1ncc2c(Nc3ccc(OC(F)(F)F)cc3)ncnc21` [2-(4-(4-(trifluoromethoxy)phenylamino)-1H-pyrazolo[3,4-d]pyrimidin-1-yl)acetamide]: 350 nM; `Fc1ccc(Nc2cc(-c3ccncc3)ncn2)cc1` [N-(4-fluorophenyl)-6-(pyridin-4-yl)pyrimidin-4-amine]: more than 10000 nM.
Take `FC(F)(F)Oc1ccc(Nc2ncnc3nn(Cc4ccccc4)cc23)cc1` [2-benzyl-N-(4-(trifluoromethoxy)phenyl)-2H-pyrazolo[3,4-d]pyrimidin-4-amine]: the EC50 was more than 10000 nM.
`COc1ccc(Nc2cc(NCCN3CCOCC3)ncn2)cc1` [N4-(4-methoxyphenyl)-N6-(2-morpholinoethyl)pyrimidine-4,6-diamine] yielded an EC50 of more than 10000 nM.
`CCCn1cc2c(Nc3ccc(OC(F)(F)F)cc3)ncnc2n1` [2-propyl-N-(4-(trifluoromethoxy)phenyl)-2H-pyrazolo[3,4-d]pyrimidin-4-amine] showed an EC50 of 160 nM.
The figure for `FC(F)(F)Oc1ccc(Nc2ncnc3[nH]ccc23)cc1` [N-(4-(Trifluoromethoxy)phenyl)-7H-pyrrolo[2,3-d]pyrimidin-4-amine] is more than 10000 nM.
Consider `FC(F)(F)Oc1ccc(Nc2ncnc3n[nH]cc23)cc1` [N-(4-(trifluoromethoxy)phenyl)-1H-pyrazolo[3,4-d]pyrimidin-4-amine], for which the response was half-maximal at 1300 nM (EC50). That is a single-digit micromolar value.
The figure for `COC(=O)c1cc2c(Nc3ccc(OC(F)(F)F)cc3)ncnc2s1` [methyl 4-(4-(trifluoromethoxy)phenylamino)thieno[2,3-d]pyrimidine-6-carboxylateMethyl 4-(4-(Trifluoromethoxy)-phenylamino)thieno[2,3-d]pyrimidine-6-carboxylate] is 5600 nM.
Consider `FC(F)(F)Oc1ccc(Nc2ccnc(NCCN3CCOCC3)n2)cc1` [N2-(2-morpholinoethyl)-N4-(4-(trifluoromethoxy)phenyl)pyrimidine-2,4-diamine], for which the EC50 was more than 10000 nM.
The figure for `CC(C)Cn1cc(-c2cc(Nc3ccc(OC(F)(F)F)cc3)ncn2)cn1` [6-(1-isobutyl-1H-pyrazol-4-yl)-N-(4-(trifluoromethoxy)phenyl)pyrimidin-4-amine] is 360 nM; for `OCCn1cc2c(Nc3ccc(OC(F)(F)F)cc3)ncnc2n1` [2-(4-(4-(Trifluoromethoxy)phenylamino)-2H-pyrazolo[3,4-d]pyrimidin-2-yl)ethanol] it is 1320 nM; for `Cc1nc(C)c(Cn2ncc3c(Nc4ccc(OC(F)(F)F)cc4)ncnc32)s1` [1-((2,4-dimethylthiazol-5-yl)methyl)-N-(4-(trifluoromethoxy)phenyl)-1H-pyrazolo[3,4-d]pyrimidin-4-amine] it is 6920 nM.
Next, `FC(F)(F)Oc1ccc(Nc2ncnc3c2cnn3Cc2ccccc2)cc1` [1-benzyl-N-(4-(trifluoromethoxy)phenyl)-1H-pyrazolo[3,4-d]pyrimidin-4-amine]: 400 nM.
In turn, `CS(=O)(=O)Nc1ccc(-c2cc(Nc3ccc(OC(F)(F)F)cc3)ncn2)cc1` [N-(4-(6-(4-(trifluoromethoxy)phenylamino)pyrimidin-4-yl)phenyl)methanesulfonamide] yielded an EC50 of 40 nM.
As to `NC(=O)CCn1ccc2c(Nc3ccc(OC(F)(F)F)cc3)ncnc21` [3-(4-(4-(trifluoromethoxy)phenylamino)-7H-pyrrolo[2,3-d]pyrimidin-7-yl)propanamide], the EC50 stood at 490 nM. Compared with the last compound, the EC50 is about 12-fold higher.

A word on the EC50: it is the concentration that produces a half-maximal response. Low values mean higher potency in that assay, high ones lower potency in that assay.
